Consider seven molecules from patent US20210024985A1, “Devices and Methods Useful for Imaging Transient and Rare Mechanical Events in Cells” (Emory University, priority 2019, published 2021).

Series [1] relates to TCR. The experiment in a line: TCR tension imaging of naïve OT-1 cells in real-time and locked state (mechanical sampling and scanning). It counts as cell-based. As for the experimental part:
Mechano-locking enhances TCR-pMHC tension signals by accumulating pulling events that are >4.7 pN. The degree of enhancement and dynamics were evaluated. OT-1 T cells were allowed to engage real-time tension probes and then incubated with unlabeled locking strand (200 nM). The unlabeled locking strand was beneficial here because it eliminated bleed-through from the Atto647N tag. Additionally, avoiding the rinsing steps accelerates the experiments and reduces perturbation of cells.
A time course for TCR-N4 pMHC tension signal accumulation for three cells upon addition of the locking strand was imaged. […] Tension occupancy, which is the fraction of the cell contact area showing tension signal, reached 91% in 10 min. The tension occupancy is an indication of the area that is mechanically scanned by the TCR with F >4.7 pN in search for antigen.
T cells mechanically sample their cognate and near cognate ligands over time. […]
The signal accumulation levels differed when cells were presented with antibody, cognate pMHC, and altered peptide ligands. To quantify these differences on a per cell basis, two parameters were defined: the mechanical sampling factor, which is the fold enhancement in integrated tension signal; and the mechanical scanning factor, which reflects the fold increase in tension occupancy (FIG. 3B). […]

For series [2], the system named is TCR. The following applies: independent of CD8, cited from earlier work.
The test system of series [3] is MTFM hairpin tension probe (stem-loop DNA hairpin). Put plainly: Hybridization of locking strand to folded MTFM probe versus unstructured single stranded DNA on model surfaces. It counts as binding. As for the experimental part: Fluorescence measurements of in-situ hybridization kinetics between the immobilized MTFM probes and the locking oligonucleotides at 200 nM. Locking oligonucleotides were added to surfaces presenting the MTFM tension probes at room temperature and allowed to bind to the hairpin for >1 h. Hybridization was monitored by the increase in fluorescence due to hairpin opening.
The selectivity of lock strand binding to unfolded hairpins over folded ones was measured by using model surfaces that either presented a folded MTFM probe or an unstructured single stranded DNA sequence. The unstructured sequence included a complementary region to the 17mer, thus providing a model for the opened state of the MTFM hairpin probes.
Conversely, mechanical stretching of DNA with large values of tension is expected to hinder hybridization. This is because forming the B-form duplex becomes less energetically favorable. Indeed, when F≈40 pN for a 24mer, this created a barrier to hybridization. […] Given that TCR forces are below 19 pN, estimates of mechano-selectivity are justified here.
Based on these criteria, five different locking oligonucleotides were designed that ranged in length from 25mer to 13mer to screen (FIG. 7A). Gold nanoparticle MTFM tension probe surfaces were prepared (FIG. 9). […] The locking oligonucleotides were tested. The 17mer has the most desirable properties (FIG. 7C). To estimate mechano-selectivity, the differential binding of locking strand to MTFM probe at rest to that of an unstructured sequence (mimicking opened state of MTFM probe) were compared.

Series [4] concerns MTFM tension probes opened by naïve OT-1 T cells. The experiment in a line: Locking/unlocking of tension probes presenting antiCD3ε in live naïve OT-1 T cells. It counts as cell-based. Conditions: 200 nM unlocking strand. As for the experimental part:
The mechanically opened probes were locked with 200 nM locking strand over 10 min. After rinsing away excess locking strand, the unlocking strand was added at a final concentration of 200 nM, and the tension signal for the same cells was measured as a function of time.
To test locking/unlocking the oligonucleotide complexes in live cells, naïve OT-1 T cells were allowed to adhere and spread on MTFM probe surfaces presenting antiCD3ε antibodies. Cells generated tension signal as the TCR engaged the antibody and transmitted forces to the probes. Subsequently, the Atto647N-tagged locking strand was added for 10 min, washed, and the same T cells were imaged, confirming binding. […] Significant co-localization between the Cy3B (hairpin opening) and the Atto647N (locking strand) signals was found, as evident from linescan analysis and the Pearson's correlation coefficient of 0.72±0.096 (n=20 cells). The excess locking strand was rinsed away before re-imaging. “Erasing” the stored cellular mechanical information was tested. This process was triggered by adding 200 nM unlocking strand to the sample for 2-3 min and confirmed by imaging the same group of T cells. The unlocking process was rapid and reached completion within 60 s. Control experiments using tension probes with a scrambled stem-loop confirmed the specificity of locking real-time tension. […]

Series [5] concerns the target OT-1 T-cell receptor (TCR) on OT-1 CD8+ T cells. The experiment in a line: cell-based or functional assay.

Read-outs that look alike come from different tables or passages of the source.

For the molecule “N4: antigenic pMHC, peptide SIINFEKL (SEQ ID NO: 22), OT-1 TCR antigen derived from chicken ovalbumin”, the “enhancement of the integrated tension signal per cell” value in series [1] (200 nM unlabeled locking strand, n=16 cells) was “approximately 189 fold”. For the same molecule, in series [1] (in 10 min after locking strand, F >4.7 pN), the tension occupancy stood at 91%. Also, the figures for the average bond lifetime in series [2] (at 10 pN) and in series [2] (at zero force) were 800 ms and 100 ms, respectively.
Regarding “locking strand: 17mer locking oligonucleotide GAAAAAAACATTTATAC (SEQ ID NO: 6) that hybridizes to mechanically unfolded hairpin; 8 nt toehold at 3′ end for unlocking (listed as DNA, chemistry not fully specified)”, the “mechano-selectivity: differential binding to MTFM probe at rest vs unstructured sequence” value in series [3] is given as “greater than two orders of magnitude”. In addition, the “hybridization to the MTFM probes among locking oligonucleotides 13mer to 25mer” value in series [3] (200 nM, room temperature, >1 h) is recorded as “optimal hybridization”. In series [3] (closed hairpin tension probe), the “hybridization to the closed hairpin tension probe, incubation without saturation” value was over 8 h. Also, the “difference in binding rates (lock binding selectivity between mechanically unfolded and folded probes)” value in series [3] (pseudo first-order kinetics, one-phase association fit, unstructured sequence vs folded MTFM probe) worked out at 487 fold. Besides, in series [3] (unstructured ssDNA with region complementary to the 17mer), the “hybridization to the unstructured sequence, time to saturation” value is reported as “saturated in seconds”.
On to “unlocking strand: strand (SEQ ID NO: 20) that triggers toehold-mediated strand displacement releasing the locking strand (DNA TAGGTAGGGTATAAAATGTTTTTTC; listed as DNA, chemistry not given here)”, for which the “time to completion of unlocking” value in series [4] is given as at most 60 s.
The molecule SIIVFEKL (peptide-MHC, part only; not given: MHC molecule, part only) [pMHC V4 (SIIXFEKL, SEQ ID NO: 23, X=V)] returned a mechanical sampling factor in series [5] of 33 fold.
Turning to SIIQFEKL (peptide-MHC, part only; not given: MHC molecule, part only) [pMHC Q4 (SIIXFEKL, SEQ ID NO: 23, X=Q)], in series [5], the mechanical sampling factor is 66 fold.
For the molecule SIIGFEKL (peptide-MHC, part only; not given: MHC molecule, part only) [mutant pMHC G4 (SIIGFEKL, SEQ ID NO: 24)], in series [5], the mechanical sampling factor was 10 fold.
Turning to SIINFEKL (peptide-MHC, part only; not given: MHC molecule, part only) [antigenic N4 pMHC (peptide SIINFEKL, SEQ ID NO: 22)], in series [5], the enhancement of the integrated N4 tension signal per cell after locking amounted to 189 fold, the force transmitted (hairpin probe threshold) was over 4.7 pN, the fraction of antigen mechanically scanned over initial contact area within 10 min migration (ICAM-1/pMHC N4 surface) was 81% and the mechanical sampling factor came to 165 fold. Also, in series [5], the tension occupancy is 91%.
